GI50 and TGI data for 23 compounds are collected here from PubChem BioAssay (NCI).

Several values for one entry are separate records, joined by “and”; a condition that tells them apart may be missing. Equal entries are not always repeated.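 A five-concentration, 48-hour dose response in 96-well plates underlies each endpoint, interpolated linearly between surrounding concentrations. Here, GI50 denotes the concentration required for 50% inhibition of growth. The concentration for full growth arrest is given as TGI.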

Among the test systems are DU-145 prostate; HS 578T breast; MDA-MB-231 breast; MDA-MB-435; T-47D breast.
Test in all cases: inhibition of tumour cell growth, NCI panel, 48 h

For `COc1cc(C(=O)Nc2cc3c(cc2Oc2cc(C)cc(C)c2)C(=O)N(C)[C@@H](CC(=O)N(C)O)C(=O)N3)c(Br)c(OC)c1OC`, the GI50 with DU-145 prostate, in the assay with HS 578T breast, in the assay on MDA-MB-231 breast, in the assay with MDA-MB-435 and in the assay on T-47D breast was less than 0.00333 µM in each case. Besides, the TGI in the assay on DU-145 prostate was 0.00428 µM; in the assay on HS 578T breast, 0.00422 µM; in the assay on MDA-MB-231 breast, less than 0.00333 µM; in the assay on MDA-MB-435, 0.00351 µM; in the assay on T-47D breast it was less than 0.00333 µM.

In the case of `CCOc1cccc(/C=N/NC(=O)C(=O)Nc2cccc(C(F)(F)F)c2)c1O`, the GI50 is 3.22 µM in the assay with DU-145 prostate; 12 µM with HS 578T breast; 1.43 µM in the assay with MDA-MB-231 breast; 4.16 µM with MDA-MB-435; 2.67 µM with T-47D breast. Also, the TGI with DU-145 prostate is greater than 100 µM; in the assay with HS 578T breast, greater than 100 µM; in the assay on MDA-MB-231 breast, greater than 100 µM; in the assay on MDA-MB-435, greater than 100 µM; in the assay on T-47D breast, 36.1 µM.

For `Cc1cc(Cl)ccc1Nc1nc(C(F)(F)F)ccc1C(=O)N/N=C/c1ccc([N+](=O)[O-])cc1`, the GI50 in the assay with DU-145 prostate was 1.78 µM; with HS 578T breast, 1.14 µM; in the assay on MDA-MB-231 breast, 1.86 µM; in the assay on MDA-MB-435, 2.45 µM; in the assay with T-47D breast it was 2.39 µM. Besides, the TGI in the assay with HS 578T breast amounted to 2.91 µM; with MDA-MB-231 breast, 5.78 µM; in the assay on MDA-MB-435, 7.69 µM; with T-47D breast, 11.6 µM.

As for `O=c1cccc(C2CC(CO)C3CCCCN3C2)[nH]1` (stereo not given), the TGI in the assay with DU-145 prostate, in the assay on HS 578T breast, in the assay with MDA-MB-231 breast, with MDA-MB-435 and with T-47D breast was greater than 100 µM throughout.

With `Cc1sc2nc3c4ccccc4c(NCCCN(C)C)nn3c(=O)c2c1C`, the GI50 was 4.4 µM with DU-145 prostate; 3.15 µM with HS 578T breast; 2.15 µM with MDA-MB-231 breast; 1.79 µM with MDA-MB-435; 12.7 µM in the assay with T-47D breast. Moreover, the TGI with DU-145 prostate worked out at 14.5 µM; in the assay on HS 578T breast, 17.5 µM; with MDA-MB-231 breast, 7.53 µM; in the assay on MDA-MB-435, 3.74 µM; with T-47D breast it was 26.1 µM.

Turning to `CCOc1cc(/C=N\Nc2nnc(C)n2N)c(C)cc1N(CCCl)CCCl`, the GI50 in the assay with DU-145 prostate is 2.68 µM; in the assay with HS 578T breast, 1.52 µM; in the assay on MDA-MB-231 breast, 1.39 µM; in the assay with MDA-MB-435, 0.5 µM; in the assay with T-47D breast, 0.46 µM. Further, the TGI with DU-145 prostate was greater than 100 µM; in the assay on HS 578T breast it was 13.1 µM; with MDA-MB-231 breast, 6.29 µM; in the assay with MDA-MB-435, greater than 39.1 µM; in the assay on T-47D breast it was 14.3 µM.

For the compound `C=CC(=O)Nc1cc2c(Nc3ccc(F)c(Cl)c3)ncnc2cc1OCCCN1CCOCC1`, the GI50 is 0.159 µM and 0.741 µM in the assay on DU-145 prostate; 2.05 µM and 2.21 µM in the assay with HS 578T breast; 1.74 µM and 2.32 µM in the assay with MDA-MB-231 breast; 2.67 µM and 4.1 µM in the assay on MDA-MB-435; 0.0677 µM and 0.182 µM in the assay on T-47D breast. Besides, the TGI in the assay with DU-145 prostate is 12.2 µM and > 10 µM; in the assay on HS 578T breast, 7.21 µM and > 10 µM; in the assay with MDA-MB-231 breast it was 4.71 µM and 9.93 µM; in the assay on MDA-MB-435 it was 12 µM and > 10 µM; in the assay with T-47D breast, 18.7 µM and > 10 µM.

Regarding `O=C(O)C1CCCCC1C(=O)O.[NH-]C1CCC1.[NH2-].[Pt+2]` (stereo not given), the GI50 is 12.5 µM with DU-145 prostate; 19.3 µM in the assay on HS 578T breast; 18.8 µM with MDA-MB-231 breast; 15.7 µM in the assay with MDA-MB-435; 11 µM in the assay on T-47D breast. Also, the TGI in the assay on DU-145 prostate worked out at 25 µM; in the assay on HS 578T breast it was 57 µM; with MDA-MB-231 breast, 38.2 µM; in the assay with MDA-MB-435 it was 29.3 µM; in the assay on T-47D breast, 34.7 µM.

In the case of `O=C(O)c1ccc2c(c1)CCCC(c1ccc(Cl)cc1Cl)=C2c1ccc(O[C@H]2CCN(CCCF)C2)cc1`, the GI50 was 14.2 µM in the assay on DU-145 prostate; 12.9 µM in the assay on HS 578T breast; 16.4 µM in the assay with MDA-MB-231 breast; 10.5 µM with MDA-MB-435; less than 0.01 µM in the assay on T-47D breast. Also, the TGI with DU-145 prostate came to 27.5 µM; with HS 578T breast, 31.8 µM; in the assay with MDA-MB-231 breast, 31.6 µM; with MDA-MB-435, 24.3 µM; in the assay with T-47D breast, 22.5 µM.

On to `COc1cc2ncnc(Nc3ccc(F)c(Cl)c3)c2cc1NC(=O)/C=C/CN1CCCCC1`, for which the GI50 was 0.365 µM and 0.401 µM in the assay with DU-145 prostate; 2.01 µM and 0.921 µM in the assay on HS 578T breast; 1.3 µM and 1.53 µM in the assay on MDA-MB-231 breast; 1.6 µM and 1.46 µM in the assay on MDA-MB-435; 0.381 µM and 0.0625 µM in the assay on T-47D breast. Further, the TGI in the assay on DU-145 prostate is 11.4 µM and > 10 µM; in the assay with HS 578T breast, 19.6 µM and 5.6 µM; in the assay with MDA-MB-231 breast, 3.2 µM and 4 µM; in the assay with MDA-MB-435, 3.42 µM and 2.95 µM; with T-47D breast, 3.67 µM and 4.9 µM.

Regarding `COc1ccc(-c2ccc(-c3ccc(C(=N)N)cn3)o2)cc1`, the GI50 was 11.3 µM in the assay with DU-145 prostate; 10.9 µM in the assay with HS 578T breast; 3.34 µM in the assay with MDA-MB-231 breast; 2.18 µM in the assay with MDA-MB-435; 5.13 µM with T-47D breast. For the same compound, the TGI came to 24.7 µM in the assay on DU-145 prostate; 36.7 µM in the assay with HS 578T breast; 15.3 µM in the assay with MDA-MB-231 breast; 4.97 µM in the assay on MDA-MB-435; 21 µM in the assay on T-47D breast.

On to `COc1cc2c(=O)n(CCN)c3c4cc5c(cc4ccc3c2cc1OC)OCO5`, for which the GI50 with DU-145 prostate was 0.488 µM; in the assay with HS 578T breast, 2.8 µM; in the assay with MDA-MB-231 breast, 1.23 µM; in the assay on MDA-MB-435, 0.894 µM; with T-47D breast, 0.508 µM. For the same compound, the TGI is 1.83 µM in the assay with DU-145 prostate; 11.7 µM in the assay with HS 578T breast; 2.66 µM with MDA-MB-231 breast; 2.29 µM in the assay on MDA-MB-435; 16.8 µM in the assay with T-47D breast.

With `CC1C(=O)OCC2=CCN3CCC(OC(=O)C(C)C1(C)O)C23` (stereo not given), the TGI with DU-145 prostate, in the assay with HS 578T breast, in the assay with MDA-MB-231 breast, in the assay on MDA-MB-435 and in the assay with T-47D breast was greater than 100 µM each time.

`COc1cc(/C=C2\C(=O)Nc3ccc(N(C)C)cc32)cc(OC)c1OC`: the GI50 in the assay with DU-145 prostate was 3.08 µM; in the assay with HS 578T breast it was 3.89 µM; with MDA-MB-231 breast, 4.26 µM; with T-47D breast, 2.49 µM. In addition, the TGI is greater than 29.3 µM in the assay with DU-145 prostate, greater than 100 µM with HS 578T breast, greater than 63.8 µM in the assay on MDA-MB-231 breast and greater than 31.3 µM in the assay on T-47D breast.

As to `COc1ccccc1/C=C/C(=O)c1ccccc1`, the GI50 in the assay with DU-145 prostate was 5.23 µM; with HS 578T breast it was 12.1 µM; with MDA-MB-231 breast, 14.4 µM; with MDA-MB-435 it was 5.16 µM; in the assay on T-47D breast, 16.8 µM. Also, the TGI in the assay on DU-145 prostate is 16.3 µM; in the assay with HS 578T breast it was greater than 25.5 µM; with MDA-MB-231 breast, 35.2 µM; in the assay on MDA-MB-435 it was 21.7 µM; in the assay with T-47D breast, 63.3 µM.

Regarding `CN(C)CCCNC(=O)c1ccc2c(c1)oc1cc3ccccc3c(=O)n12`, the GI50 in the assay on MDA-MB-231 breast is 16.9 µM; in the assay on MDA-MB-435 it was 19.1 µM; in the assay on T-47D breast it was 11.5 µM. Moreover, the TGI was greater than 50 µM in the assay with MDA-MB-231 breast, greater than 50 µM with MDA-MB-435 and 26.7 µM in the assay on T-47D breast.

With `CCCOc1ccc2nc(NC(=O)OC)[nH]c2c1`, the GI50 is 0.466 µM with DU-145 prostate; 0.342 µM in the assay on HS 578T breast; 0.399 µM in the assay on MDA-MB-231 breast; 0.0284 µM in the assay on MDA-MB-435; greater than 100 µM in the assay with T-47D breast. Also, the TGI in the assay with HS 578T breast was greater than 100 µM; in the assay with MDA-MB-231 breast, greater than 100 µM; with MDA-MB-435 it was 0.11 µM; with T-47D breast it was greater than 100 µM.

With `COc1ccc(Cn2c3c(cc(OS(=O)(=O)C(F)(F)F)c2=O)Cc2ccccc2-3)cc1`, the GI50 in the assay on DU-145 prostate was 17.1 µM; in the assay with HS 578T breast, greater than 100 µM; with MDA-MB-231 breast, 5.26 µM; in the assay on MDA-MB-435, 29.4 µM; in the assay on T-47D breast, 16.6 µM. The TGI with DU-145 prostate is 50 µM and > 100 µM; in the assay with HS 578T breast, greater than 100 µM; with MDA-MB-231 breast it was greater than 100 µM; in the assay with MDA-MB-435, 50 µM and > 100 µM; with T-47D breast, 50 µM and > 100 µM.

Regarding `CCN(CC)C(=S)Oc1cc2oc(=O)cc(C)c2cc1Cl`, the TGI in the assay on DU-145 prostate, with HS 578T breast, in the assay on MDA-MB-231 breast, in the assay on MDA-MB-435 and in the assay on T-47D breast was greater than 100 µM each time.

Regarding `Nc1ccccc1C#C/C=C\C#Cc1ccccc1`, the GI50 with DU-145 prostate is 12.2 µM; in the assay with MDA-MB-231 breast, 11.6 µM; in the assay with MDA-MB-435, 2.64 µM; in the assay with T-47D breast, 17.7 µM. The TGI with DU-145 prostate came out at 38.3 µM; with MDA-MB-231 breast, 26.8 µM; with MDA-MB-435, 6.31 µM; in the assay with T-47D breast, 38.3 µM.

As to `Cc1cc(S(=O)(=O)NC#N)c(S/C(=N\Nc2ccc([N+](=O)[O-])cc2)c2ccc(Cl)cc2)cc1Cl`, the GI50 in the assay with DU-145 prostate was 17.6 µM; in the assay on HS 578T breast it was 17.2 µM; with MDA-MB-435, 64.3 µM; with T-47D breast it was 3.89 µM. The TGI was greater than 100 µM with DU-145 prostate, 58 µM with HS 578T breast, greater than 100 µM with MDA-MB-435 and 42.6 µM with T-47D breast.

As to `CCN(CC)C(=S)SC`, the TGI with DU-145 prostate, with HS 578T breast, in the assay on MDA-MB-231 breast and in the assay with T-47D breast was greater than 100 µM each time.

For the compound `Cc1nc2sccn2c1-c1csc(Nc2cccc(Cl)c2C)n1`, the GI50 in the assay on DU-145 prostate was 8.45 µM; in the assay on HS 578T breast, 4.56 µM; in the assay on MDA-MB-231 breast it was 3.62 µM; with MDA-MB-435, 1.95 µM. In addition, the TGI in the assay on DU-145 prostate turned out to be 72 µM; with HS 578T breast, 51.2 µM; in the assay on MDA-MB-231 breast, 20.2 µM; in the assay with MDA-MB-435, 6.47 µM.
